Several values for one entry are separate records, joined by “and”; a condition that tells them apart may be missing. Identical values can stand only once.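 How tested: cells in 96-well plates exposed to compound for 48 hours at five concentrations. At the GI50, growth is halved. TGI is the concentration that stops growth completely.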
Key:
Assay in all cases: NCI tumour cell line growth inhibition, 48 h
DLD-1 colon = system: DLD-1 colon
DMS 114 small cell lung = system: DMS 114 small cell lung
LXFL 529 NSCLC = system: LXFL 529 NSCLC
M19-MEL melanoma = system: M19-MEL melanoma
RXF-631 renal = system: RXF-631 renal
P388/ADR leukemia = system: P388/ADR leukemia
SN12K1 renal = system: SN12K1 renal
MDA-N = system: MDA-N
BT-549 breast = system: BT-549 breast
P388 leukemia = system: P388 leukemia
T-47D breast = system: T-47D breast

Compound | TGI (DLD-1 colon) | TGI (DMS 114 small cell lung) | TGI (LXFL 529 NSCLC) | TGI (M19-MEL melanoma) | TGI (RXF-631 renal) | TGI (P388/ADR leukemia) | TGI (SN12K1 renal) | GI50 (MDA-N) | TGI (MDA-N) | GI50 (BT-549 breast) | TGI (BT-549 breast) | TGI (P388 leukemia) | TGI (T-47D breast)
CCN1CCC(O)(c2ccc(OC)cc2)C(C(=O)c2ccc(OC)cc2)C1 (stereo unspecified) | 36.3 µM | 40.8 µM | 37.2 µM | 34.9 µM | 47.5 µM | – | – | – | – | – | – | – | –
O=c1ccn([C@H]2CSC[C@@H](CO)C2)c(=O)[nH]1 | > 100 µM | > 100 µM | > 100 µM | > 100 µM | > 100 µM | – | – | – | – | – | – | – | –
O=C1/C(=C/c2ccc(Cl)cc2)CCC1CCN1CCOCC1 (stereo unspecified) | > 100 µM | > 100 µM | > 100 µM | > 100 µM | > 100 µM | – | – | – | – | – | – | – | –
CN1CCOC(c2ccccc2)O1 (stereo unspecified) | > 100 µM | > 100 µM | > 100 µM | > 100 µM | > 100 µM | – | – | – | – | – | – | – | –
COc1cc(NCc2ccc3nc(N)nc(N)c3c2C)cc(OC)c1OC (tested in a mixture with another compound) | 95.6 µM | 37.7 µM | – | 52.5 µM | – | 12.7 µM | 36.6 µM | 0.025 µM | 44.9 µM | 0.0611 µM | 34.2 µM and 45.4 µM | 10 µM | 65.7 µM
COc1ccc(CC2NCCc3c2[nH]c2ccccc32)cc1 (stereo unspecified) | > 100 µM | > 100 µM | > 100 µM | > 100 µM | 73.5 µM | – | – | – | – | – | – | – | –
O=C(CCc1n[nH]c(=S)o1)Nc1ccccc1C(F)(F)F | > 100 µM | > 100 µM | > 100 µM | > 100 µM | > 100 µM | – | – | – | – | – | – | – | –
O=C1/C(=C/c2ccc3c(c2)OCO3)SC2C=Nc3ccccc3N12 (stereo unspecified) | > 100 µM | > 100 µM | > 100 µM | > 100 µM | > 100 µM | – | – | – | – | – | – | – | –
OCC1OC(c2nc(C3=NCCCN3)cs2)C(O)C1O (stereo unspecified) | > 100 µM | > 100 µM | > 100 µM | > 100 µM | > 100 µM | – | – | – | – | – | – | – | –
